From patent US8518903B2, “Use of toll-like receptor-9 agonists” (University of Pittsburgh—of the Commonwealth System of …, priority 2007, dated 2013)

Columns and labels:
[1] = test system: IEC-6 enterocytes; experiment: TLR4-mediated NFkB (p65) translocation in IEC-6 enterocytes treated with LPS and MDP; format: cell-based; conditions: IEC-6 cells
Text: FIG. 23A-E. MDP prevents TLR4-mediated NFkB translocation in IEC-6 enterocytes. […] Representative of 5 separate experiments. **p<0.05 vs. control by ANOVA, *p<0.05 vs. LPS by ANOVA.
NOD2 activation with MDP inhibits TLR4 signaling in enterocytes. The next experiments were designed to determine whether NOD2 activation with MDP would inhibit TLR4 signaling in enterocytes. To do so, IEC-6 enterocytes—a cell line that represents a model system to study enterocyte biology and which expresses TLR4 (Neal et al., 2006, J Immunol 176:3070-3079)—were treated with LPS in the presence or absence of MDP. Since TLR4 signaling leads to the translocation of NFkB from the cytoplasm into the nucleus, the extent of TLR4 activation was evaluated using an immunofluorescence-based detection assay of the p65 subunit of NFkB. As is shown in FIG. 23A and quantified in FIG. 23E, in control cells, NFkB is localized in the cytoplasm. Upon treatment with LPS ([…], 1 h), NFkB was detected in the nucleus, indicative of NFkB activation (FIG. 23B).

[2] = test system: IEC-6 cells; experiment: IL-6 release from LPS-treated IEC-6 cells (ELISA); format: cell-based; conditions: IEC-6 cells in vitro
Experimental: (§1) FIG. 24A-C. MDP inhibits TLR4 signaling in enterocytes. A. IL-6 release in vitro as determined by ELISA in IEC-6 cells that were either untreated, or treated with LPS in the presence or absence of MDP. B. Serum IL-6 release in vivo in wild-type (open bars) and NOD2-deficient mice (solid bars) that were either pre-treated with saline or MDP then injected with LPS. C. SDS-PAGE showing the expression of phosphorylated ERK and beta-actin in IEC-6 cells that were treated with media (control), LPS, LPS with MDP, LPS with MDP-C which is a non-stimulatory analogue of MDP, and either MDP or MDP-C alone. **p<0.05 vs. control by ANOVA, *p<0.05 vs. LPS by ANOVA.
(§2) The next series of experiments were designed to further define the physiological significance of the finding that MDP reduces TLR4-mediated NFkB translocation in enterocytes, and to evaluate potential mechanisms involved. Since NFkB activation is known to lead to the release of pro-inflammatory cytokines including IL-6, experiments were performed to evaluate whether MDP would alter the extent of IL-6 release from LPS-treated IEC-6 cells. […] To determine the physiological significance of this work in vivo, wild-type and NOD2-knockout mice were injected with LPS (5 mg/kg) in the presence or absence of MDP (1 mg/kg), and serum IL-6 release—a measure of TLR4 signaling in vivo—was determined by ELISA.

[3] = test system: wild-type and NOD2-knockout mice; experiment: Serum IL-6 release in LPS-injected wild-type and NOD2-knockout mice (ELISA); format: in vivo, mouse; conditions: LPS 5 mg/kg, MDP 1 mg/kg
Experimental: as §1, §2

[4] = test system: IEC-6 cells; experiment: pERK expression in LPS-treated IEC-6 cells (SDS-PAGE); format: cell-based
Experimental: as §1
To further define the effects of MDP on LPS-mediated signaling in enterocytes, IEC-6 cells were treated with LPS in the presence or absence of MDP and the expression of the TLR4 downstream target pERK was assessed by SDS-PAGE. As is shown in FIG. 24C, LPS caused an increase in the expression of pERK compared with untreated cells. […] Taken together, these findings indicate that NOD2 activation with MDP leads to an inhibition of TLR4 signaling in enterocytes in vitro and in vivo.

[5] = test system: TLR4; experiment: TLR4 distribution and expression in enterocytes after MDP (immunohistochemistry, RT-PCR); format: in vivo, mouse
Experimental: FIG. 25. MDP treatment decreases TLR4 expression in enterocytes. Newborn mice were treated with LPS after pre-treatment with either saline or MDP. Three hours later mucosal scrapings were harvested from the terminal ileum, and subjected to RT-PCR for expression of TLR4. Representative of 4 separate experiments. Duplicate samples are shown for each group.
MDP treatment of enterocytes reduces the expression of TLR4. The next series of studies investigated the potential mechanisms by which MDP activation of NOD2 could lead to a reduction in the extent of TLR4 signaling.

[6] = test system: experimental NEC in newborn mice; experiment: Experimental necrotizing enterocolitis in newborn mice, MDP treatment; format: in vivo, mouse
Experimental: FIG. 26A-E. MDP prevents against the development of experimental NEC in vivo in newborn mice. Newborn mice were injected with saline or MDP daily for four days, and then were induced to develop NEC. A. Histology (H&E) of terminal ileum of breast fed mouse treated with saline control. B. Histology (H&E) of terminal ileum of breast fed mouse treated with MDP. C. Histology (H&E) of terminal ileum of mouse pre-treated with saline, after which NEC was induced. D. Histology (H&E) of terminal ileum of mouse pre-treated with MDP, after which conditions which induced NEC in saline-treated mice were applied. E: Severity of NEC in newborn mice as scored by a blinded pediatric pathologist. *p<0.05 vs. NEC in saline-injected mice. Representative of three separate experiments with over 5 animals per group.
NOD2 expression in the intestine is reduced in human and experimental necrotizing enterocolitis. […]
MDP prevents against the development of experimental necrotizing enterocolitis. […] It was also determined that mucosal NOD2 expression is decreased in experimental NEC (FIG. 22I). […]

[7] = test system: models of ulcerative colitis; conditions: previous reports; cited from earlier work
[8] = test system: experimental NEC in newborn mice; experiment: Murine NEC model in NFkB-GFP transgenic mice (histology, mucosal TNF-α RTPCR, NFκB activation); format: in vivo, mouse
Experimental: FIG. 27A-G. CpG-ODN-HS and CpG-DNA reduce the development of experimental NEC in vivo in newborn mice. Newborn NEC and control mice were injected with CpG-ODN-HS or CpG-DNA. A. Histology (H&E) of terminal ileum of breast fed mouse. B. Histology (H&E) of terminal ileum of mouse after induction of NEC. C. Histology (H&E) of terminal ileum of mouse treated with CpG-DNA, after which conditions which induced NEC were applied. D. Histology (H&E) of terminal ileum of mouse treated with CpG-ODN-HS, after which conditions which induced NEC were applied. E. Histology (H&E) of terminal ileum of breast fed mouse treated with CpG-ODN-HS. F. Histology (H&E) of terminal ileum of breast fed mouse treated with CpG-DNA. G. Severity of NEC in newborn mice as scored by a blinded pediatric pathologist. *p<0.05 vs. NEC in saline-injected mice.
FIG. 28. CpG-ODN-HS and CpG-DNA reduce the expression of mucosal TNF-α in NEC newborn mice in vivo.
FIG. 29A-D. Confocal microscopy showing the extent of NFkB activation in mice with NEC in the absence or presence of CpG-ODN-HS. CpG-ODN-HS reduces the level of NFkB activation in NEC newborn mice in vivo. The mice express NFkB-GFP, and sections were stained with anti-GFP antibody (red; arrow).
The effect of the TLR9 agonist CpG-ODN 5′ […] 3′ (SEQ ID NO:10; referred to herein as CpG-ODN-HS) on the mediator of activated TLR4, NFκB, was examined in a murine NEC model (previously described, above). The effect of CpG-ODN-HS on inflammation in the NEC murine model was also examined as a measured by TNF-α expression, which is an index of inflammation.
Materials and methods. Phosphorothioated CpG-ODN-HS and oligodeoxynucleotide (ODN) 1826 ([…]) (SEQ ID NO:6; referred to herein as CpG-DNA) were synthesized by the University of Pittsburgh DNA synthesis facility. ODNs were confirmed to be endotoxin-free by Limulus assay. NFkB-GFP antibody was obtained from Santa Cruz and Abcam. The extent of nuclear translocation was determined in an adaptation of the methodology of Ding and colleagues. In brief, a threshold limit was set based upon the emission signal for the nuclear stain DRAQ5, which therefore defined a nuclear region of interest (ROI). To define a corresponding cytoplasmic region of interest, a circular region 12 pixels beyond the nucleus was stenciled upon each cell. The average integrated pixel intensity pertaining to the corresponding NFkB emission within the cytoplasmic and nuclear regions was then determined for more than 200 cells per treatment group in at least four experiments per group, using MetaMorph software version 6.1 (Molecular Devices Corporation, Downingtown, Pa.).
Mucosal TNF-α expression was measured using quantitative real-time PCR (RTPCR). Quantitative real-time PCR in cultured enterocytes and intestinal tissue using the BioRad iCycler (Biorad, Hercules, CA) was performed as in (Leaphart, C. L., J. Cavallo, S. C. Gribar, S. Cetin, J. Li, M. F. Branca, T. D. Dubowski, C. P. Sodhi, and D. J. Hackam. 2007. A Critical Role for TLR4 in the Pathogenesis of Necrotizing Enterocolitis by Modulating Intestinal Injury and Repair. J Immunology 179:4808-4820). Oligonucleotide primer pairs used for RTPCR were as follows: forward: 5′ […] 3′ (SEQ ID NO:14), reverse: 5′ […] 3′ (SEQ ID NO:15); and forward: 5′ […] 3′ (SEQ ID NO:16), reverse: 5′ […] 3′ (SEQ ID NO:17). Gene expression was normalized to β-actin expression. Where indicated, gene expression was assessed on 2.5% agarose gels using ethidium bromide staining. […]

Row | Compound | LPS-induced nuclear translocation of NFkB ([1]; LPS in the presence of MDP) | extent of NFkB translocation ([1]; MDP alone) | LPS-induced IL-6 release [2] | effect in reducing TLR4 signaling (serum IL-6 release) ([3]; NOD2-knockout mice) | LPS-mediated serum IL-6 release ([3]; wild-type mice) | LPS-induced pERK expression [4] | relative distribution of TLR4 in enterocytes ([5]; immunohistochemistry) | expression of TLR4 in enterocytes ([5]; newborn mice, LPS after MDP pre-treatment, terminal ileum mucosal scrapings, RT-PCR) | extent of NEC that developed (histology of terminal ileum) ([6]; NOD2-wild-type mice, MDP 1 mg/ml daily for four days, vs saline) | intestinal histology ([6]; breast fed mice, MDP alone) | degree of intestinal inflammation [7] | activation of NFκB ([8]; NEC mice expressing NFkB-GFP, confocal microscopy) | level of expression of mucosal TNF-α in terminal ileum ([8]; NEC mice, RTPCR) | NEC pathology (histology of terminal ileum) ([8]; NEC mice, treated vs untreated)
1 | CC(=O)N[C@@H]1[C@@H](O[C@H](C)C(=O)N[C@@H](C)C(=O)N[C@H](CCC(=O)O)C(N)=O)[C@H](O)[C@@H](CO)O[C@H]1O [MDP, muramyl-di-peptide] | reduction in nuclear translocation | did not significantly alter | significantly reduced | less pronounced | significantly reduced | significantly reduced | does not alter | significant reduction | striking reduction in the extent of NEC | did not alter intestinal histology | can limit the degree of intestinal inflammation |  |  | 
2 | 5′ TCGTCGTTTTGTCGTTCCTGACGTT 3′ (listed as DNA, chemistry not fully specified) [CpG-ODN-HS, TLR9 agonist CpG-ODN] |  |  |  |  |  |  |  |  |  |  |  | reduced | reduced | inhibition of the NEC pathology
3 | CC(=O)NC1C(O)OC(CO)C(O)C1OC(C)C(=O)NC(C)C(=O)NC(CCC(=O)O)C(N)=O (stereo not shown) [MDPC] |  |  | did not reduce |  |  | did not reduce |  |  |  |  |  |  |  | 
